# US6573262B2, “Composition and antiviral activity of substituted indoleoxoacetic piperazine derivatives” (priority 2000, dated 2003)
# Tested on: HIV-1 single-round infectious reporter virus
# Assay: microbe, parasite or virus in culture
# Assay type: cell-based
# Details: for EC50: Human immunodeficiency virus 1, HeLa-CD4/CCR5, 72 h, read-out: EC50 Group from Table 1; for inhibition at 10 µM: Human immunodeficiency virus 1, HeLa-CD4/CCR5, read-out: % Inhibition @ 10 uM
Compound,EC50,inhibition at 10 µM
CCN(CC)CCNC(=O)c1cccc2c(C(=O)C(=O)N3CCN(C(=O)c4ccccc4)C[C@H]3C)c[nH]c12 [Example 66],< 1 µM,98%
CCNC(=O)c1cccc2c(C(=O)C(=O)N3CCN(C(=O)c4ccccc4)C[C@H]3C)c[nH]c12 [Example 67],< 1 µM,> 98%
C[C@@H]1CN(C(=O)c2ccccc2)CCN1C(=O)C(=O)c1c[nH]c2c(C(=O)N3CCN(Cc4ccccc4)CC3)cccc12 [Example 68],< 1 µM,> 98%
O=C(C(=O)N1CCN(C(=O)c2ccccc2)CC1)c1c[nH]c2c(C(=O)N3CCN(C(=O)c4ccccc4)CC3)ccc(F)c12 [Example 69],< 1 µM,> 98%
O=C(O)Cn1nnc(-c2ccc(F)c3c(C(=O)C(=O)N4CCN(C(=O)c5ccccc5)CC4)c[nH]c23)n1 [Example 70],< 1 µM,> 98%
CNC(=O)Cn1nnc(-c2ccc(F)c3c(C(=O)C(=O)N4CCN(C(=O)c5ccccc5)CC4)c[nH]c23)n1 [Example 71],< 1 µM,> 98%
COC(CNC(=O)c1ccc(F)c2c(C(=O)C(=O)N3CCN(C(=O)c4ccccc4)CC3)c[nH]c12)OC [Example 72],< 1 µM,> 98%
O=C(C(=O)N1CCN(C(=O)c2ccccc2)CC1)c1c[nH]c2c(-c3ncco3)ccc(F)c12 [Example 73],< 1 µM,> 98%
N=C(NC1CC1)c1ccc(F)c2c(C(=O)C(=O)N3CCN(C(=O)c4ccccc4)CC3)c[nH]c12 [Example 75],< 1 µM,> 98%
O=C(C(=O)N1CCN(C(=O)c2ccccc2)CC1)c1c[nH]c2c(-c3nc4ccccc4[nH]3)ccc(F)c12 [Example 76],< 1 µM,> 98%
N=C(NN)c1ccc(F)c2c(C(=O)C(=O)N3CCN(C(=O)c4ccccc4)CC3)c[nH]c12 [Example 77],,> 98%
Cc1n[nH]c(-c2ccc(F)c3c(C(=O)C(=O)N4CCN(C(=O)c5ccccc5)CC4)c[nH]c23)n1 [Example 78],< 1 µM,
O=C(C(=O)N1CCN(C(=O)c2ccccc2)CC1)c1c[nH]c2c(-c3ncon3)ccc(F)c12 [Example 79],< 1 µM,> 98%
Cc1nc(-c2ccc(F)c3c(C(=O)C(=O)N4CCN(C(=O)c5ccccc5)CC4)c[nH]c23)no1 [Example 80],< 1 µM,> 98%
O=C(C(=O)N1CCN(C(=O)c2ccccc2)CC1)c1c[nH]c2c(-c3noc(C(Cl)(Cl)Cl)n3)ccc(F)c12 [Example 81],< 1 µM,
O=C(C(=O)N1CCN(C(=O)c2ccccc2)CC1)c1c[nH]c2c(-c3noc(NC4CC4)n3)ccc(F)c12 [Example 82],< 1 µM,> 98%
Nc1nc(-c2ccc(F)c3c(C(=O)C(=O)N4CCN(C(=O)c5ccccc5)CC4)c[nH]c23)no1 [Example 83],< 1 µM,> 98%
O=C(C(=O)N1CCN(C(=O)c2ccccc2)CC1)c1c[nH]c2c(-c3cncn3Cc3ccccc3)ccc(F)c12 [Example 84],< 1 µM,
O=C(C(=O)N1CCN(C(=O)c2ccccc2)CC1)c1c[nH]c2c(-c3cnc[nH]3)ccc(F)c12 [Example 85],< 1 µM,
CCOC(=O)c1cc(-c2ccc(F)c3c(C(=O)C(=O)N4CCN(C(=O)c5ccccc5)CC4)c[nH]c23)[nH]n1 [Example 86],< 1 µM,
CCOC(=O)c1cc(-c2ccc(F)c3c(C(=O)C(=O)N4CCN(C(=O)c5ccccc5)CC4)c[nH]c23)on1 [Example 87],< 1 µM,
O=C(O)c1cc(-c2ccc(F)c3c(C(=O)C(=O)N4CCN(C(=O)c5ccccc5)CC4)c[nH]c23)[nH]n1 [Example 88],< 1 µM,

Compound,EC50,inhibition at 10 µM
CNC(=O)c1cc(-c2ccc(F)c3c(C(=O)C(=O)N4CCN(C(=O)c5ccccc5)CC4)c[nH]c23)[nH]n1 [Example 89],< 1 µM,
O=C(O)c1cc(-c2ccc(F)c3c(C(=O)C(=O)N4CCN(C(=O)c5ccccc5)CC4)c[nH]c23)on1 [Example 90],< 1 µM,
CC(C)(C)OC(=O)NNC(=O)c1ccc(F)c2c(C(=O)C(=O)N3CCN(C(=O)c4ccccc4)CC3)c[nH]c12 [Example 91],< 1 µM,
NNC(=O)c1ccc(F)c2c(C(=O)C(=O)N3CCN(C(=O)c4ccccc4)CC3)c[nH]c12 [Example 92],< 1 µM,
O=C(C(=O)N1CCN(C(=O)c2ccccc2)CC1)c1c[nH]c2c(-c3nnco3)ccc(F)c12 [Example 93],< 1 µM,
CC(=O)Nc1nc(-c2ccc(F)c3c(C(=O)C(=O)N4CCN(C(=O)c5ccccc5)CC4)c[nH]c23)no1 [Example 96],< 1 µM,
O=C(C(=O)N1CCN(C(=O)c2ccccc2)CC1)c1c[nH]c2c(-c3noc(CCl)n3)ccc(F)c12 [Example 97],< 1 µM,
COC(=O)Cc1nc(-c2ccc(F)c3c(C(=O)C(=O)N4CCN(C(=O)c5ccccc5)CC4)c[nH]c23)no1 [Example 98],< 1 µM,
CNC(=O)c1nc(-c2ccc(F)c3c(C(=O)C(=O)N4CCN(C(=O)c5ccccc5)CC4)c[nH]c23)no1 [Example 102],< 1 µM,
NC(=O)c1nc(-c2ccc(F)c3c(C(=O)C(=O)N4CCN(C(=O)c5ccccc5)CC4)c[nH]c23)no1 [Example 103],< 1 µM,
NC(=O)Cn1nnc(-c2ccc(F)c3c(C(=O)C(=O)N4CCN(C(=O)c5ccccc5)CC4)c[nH]c23)n1 [Example 104],< 1 µM,
CC(=O)OCn1nnc(-c2ccc(F)c3c(C(=O)C(=O)N4CCN(C(=O)c5ccccc5)CC4)c[nH]c23)n1 [Example 108],< 1 µM,
O=C(C(=O)N1CCN(C(=O)c2ccccc2)CC1)c1c[nH]c2c(-c3nc[nH]n3)ccc(F)c12 [Example 111],< 1 µM,
O=C(C(=O)N1CCN(C(=O)c2ccccc2)CC1)c1c[nH]c2c(-c3nnn(CCO)n3)ccc(F)c12 [Example 112],< 1 µM,
O=C(C(=O)N1CCN(C(=O)c2ccccc2)CC1)c1c[nH]c2c(-c3nnn(CCN4C(=O)c5ccccc5C4=O)n3)ccc(F)c12 [Example 113],< 1 µM,
CCN(CC)CCn1nnc(-c2ccc(F)c3c(C(=O)C(=O)N4CCN(C(=O)c5ccccc5)CC4)c[nH]c23)n1 [Example 114],< 1 µM,
N#CCCCn1nnc(-c2ccc(F)c3c(C(=O)C(=O)N4CCN(C(=O)c5ccccc5)CC4)c[nH]c23)n1 [Example 115],< 1 µM,
O=C(C(=O)N1CCN(C(=O)c2ccccc2)CC1)c1c[nH]c2c(-n3cccn3)ccc(F)c12 [Example 116],< 1 µM,
O=C(C(=O)N1CCN(C(=O)c2ccccc2)CC1)c1c[nH]c2c(-n3ccnc3)ccc(F)c12 [Example 117],< 1 µM,
O=C(C(=O)N1CCN(C(=O)c2ccccc2)CC1)c1c[nH]c2c(-n3cncn3)ccc(F)c12 [Example 118],< 1 µM,
COc1ccc(C(C)=O)c2[nH]cc(C(=O)C(=O)N3CCN(C(=O)c4ccccc4)CC3)c12 [Example 119],< 1 µM,
CCN(CC)C(=O)COC(=O)c1cc(-c2ccc(F)c3c(C(=O)C(=O)N4CCN(C(=O)c5ccccc5)CC4)c[nH]c23)n[nH]1 [Example 120],< 1 µM,

Compound,EC50,inhibition at 10 µM
CC(C)(C)OC(=O)N1CCN(C(=O)C(=O)c2c[nH]c3c(/C(N)=N/O)ccc(F)c23)CC1 [Example 121],< 1 µM,
CC(C)(C)OC(=O)N1CCN(C(=O)C(=O)c2c[nH]c3c(-c4ncon4)ccc(F)c23)CC1 [Example 122],< 1 µM,
CC1CN(C(=O)C(=O)c2c[nH]c3c(-c4ncon4)ccc(F)c23)CCN1C(=O)c1ccccc1 (stereo not shown) [Example 123],< 1 µM,
COc1ccc(/C=N/O)c2[nH]cc(C(=O)C(=O)N3CCN(C(=O)c4ccccc4)CC3)c12 [Example 124],< 1 µM,
CNC(=O)c1ccc(OC)c2c(C(=O)C(=O)N3CCN(C(=O)c4ccccc4)CC3)c[nH]c12 [Example 125],< 1 µM,
COc1ccc(-c2ncon2)c2[nH]cc(C(=O)C(=O)N3CCN(C(=O)c4ccccc4)CC3)c12 [Example 126],< 1 µM,
CC(C)(C)OC(=O)N1C=NNC(c2ccc(F)c3c(C(=O)C(=O)N4CCN(C(=O)c5ccccc5)CC4)c[nH]c23)=N1 [Example 132],< 1 µM,
CC(C)(C)NC(=O)NNC(=O)c1ccc(F)c2c(C(=O)C(=O)N3CCN(C(=O)c4ccccc4)CC3)c[nH]c12 [Example 133],< 1 µM,
CC(C)NC(=O)NNC(=O)c1ccc(F)c2c(C(=O)C(=O)N3CCN(C(=O)c4ccccc4)CC3)c[nH]c12 [Example 134],< 1 µM,
CCCNC(=O)NNC(=O)c1ccc(F)c2c(C(=O)C(=O)N3CCN(C(=O)c4ccccc4)CC3)c[nH]c12 [Example 135],< 1 µM,
COC(=O)CNc1nc(-c2ccc(F)c3c(C(=O)C(=O)N4CCN(C(=O)c5ccccc5)CC4)c[nH]c23)no1 [Example 140],< 1 µM,
COC(=O)Cn1cnc(-c2ccc(F)c3c(C(=O)C(=O)N4CCN(C(=O)c5ccccc5)CC4)c[nH]c23)n1 [Example 144],< 1 µM,
CNC(=O)Cn1cnc(-c2ccc(F)c3c(C(=O)C(=O)N4CCN(C(=O)c5ccccc5)CC4)c[nH]c23)n1 [Example 145],< 1 µM,
COC(=O)c1c[nH]c(-c2ccc(F)c3c(C(=O)C(=O)N4CCN(C(=O)c5ccccc5)CC4)c[nH]c23)n1 [Example 146],< 1 µM,
CNC(=O)c1c[nH]c(-c2ccc(F)c3c(C(=O)C(=O)N4CCN(C(=O)c5ccccc5)CC4)c[nH]c23)n1 [Example 147],< 1 µM,
COc1ccc(C(N)=O)c2[nH]cc(C(=O)C(=O)N3CCN(C(=O)c4ccccc4)CC3)c12 [Example 148],< 1 µM,
O=C(C(=O)N1CCN(C(=O)c2ccccn2)CC1)c1c[nH]c2c(-c3nnn(C(F)F)n3)ccc(F)c12 [Example 149],< 1 µM,
O=C(C(=O)N1CCN(C(=O)c2cccc([N+](=O)[O-])c2)CC1)c1c[nH]c2c(-c3ncon3)ccc(F)c12 [Example 150A],< 1 µM,
O=C(C(=O)N1CCN(C(=O)c2c(F)cccc2F)CC1)c1c[nH]c2c(-c3ncon3)ccc(F)c12 [Example 150B],< 1 µM,
O=C(C(=O)N1CCN(C(=O)c2ccccc2F)CC1)c1c[nH]c2c(-c3ncon3)ccc(F)c12 [Example 150C],< 1 µM,
Nc1cccc(C(=O)N2CCN(C(=O)C(=O)c3c[nH]c4c(-c5ncon5)ccc(F)c34)CC2)c1 [Example 151],< 1 µM,
